Biological target: human iNKT‐cell TCR (Homo sapiens, UniProt A0A0B4J240+P15813)
Assay: SPR (BIAcore) binding of soluble human iNKT‐cell TCR to hCD1d/lipid complexes
Description: Two analogs of ThrCer, ThrCer 6, and ThrCer 7 were synthesized. […] We first carried out measurements to assess the binding affinity of these ThrCer analogs to human iNKT‐cell TCR (Fig. 1B). Recombinant human CD1d (hCD1d) molecules were refolded in vitro with ThrCer 6 and ThrCer 7 separately and coupled to BIAcore chips, over which refolded human iNKT‐cell TCR was injected at different concentrations 34. […] Importantly, these findings were consistent with data obtained using tetrameric human iNKT‐cell TCRs as a staining reagent to identify lipid/CD1d complexes on the surface of C1R cells that had been transfected with hCD1d cDNA (hCD1d C1R cells) and subsequently loaded with the different lipids 34 (Fig. 1C).
Soluble human invariant TCR was generated as previously described 34 where both the Vα24 and Vβ11 chains were individually overexpressed in Escherichia coli, purified from the inclusion bodies, then refolded, and purified to generate the TCR heterodimers, according to Boulter et al. 43. The murine TCR was generated according to Pellici et al. as a chimeric molecule (with variable murine regions and human constant regions) 44. The hybrid alpha chains and beta chains were individually expressed in E. coli and purified from the inclusion bodies, then refolded as above.
SPR experiments were performed with a BIAcore 3000 to measure the affinity and kinetics of iNKT‐cell TCR binding to human CD1d–ligand complexes. In brief, approximately 1000 RU of the biotinylated hCD1d–lipid complexes were immobilized onto streptavidin‐coated CM5 sensor chips (BIAcore). Aliquots of purified TCR with increasing concentrations were passed over immobilized hCD1d–lipid complex at a flow rate of 10 μL/min for the equilibrium‐binding experiments or 50 μL/min for the kinetics experiments. The dissociation constants, K d, were calculated by fitting the data from the equilibrium‐binding experiment to a non‐linear regression saturation binding model (GraphPad Prism 5.0), whereas the k off data were estimated from the kinetics experiments by fitting the data with the built‐in models of the BIAeval3.1 software (BIAcore).

human iNKT‐cell TCR, sequence (P01848 1-93): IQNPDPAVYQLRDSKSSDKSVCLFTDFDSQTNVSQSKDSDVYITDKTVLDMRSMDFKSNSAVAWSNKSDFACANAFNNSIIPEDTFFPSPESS
human iNKT‐cell TCR, sequence (P61769 21-119, further chain): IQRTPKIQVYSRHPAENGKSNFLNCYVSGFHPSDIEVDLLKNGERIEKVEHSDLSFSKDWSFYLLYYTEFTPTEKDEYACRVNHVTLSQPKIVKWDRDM
human iNKT‐cell TCR, sequence (A0A0B4J240 22-114): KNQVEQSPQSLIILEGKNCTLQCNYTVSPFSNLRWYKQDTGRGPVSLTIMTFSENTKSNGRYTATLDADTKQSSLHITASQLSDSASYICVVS
human iNKT‐cell TCR, sequence (P01850 1-129, further chain): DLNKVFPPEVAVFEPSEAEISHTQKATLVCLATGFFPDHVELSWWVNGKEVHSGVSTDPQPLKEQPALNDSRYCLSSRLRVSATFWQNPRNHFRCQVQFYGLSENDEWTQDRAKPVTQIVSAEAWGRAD
human iNKT‐cell TCR, sequence (P15813 20-301): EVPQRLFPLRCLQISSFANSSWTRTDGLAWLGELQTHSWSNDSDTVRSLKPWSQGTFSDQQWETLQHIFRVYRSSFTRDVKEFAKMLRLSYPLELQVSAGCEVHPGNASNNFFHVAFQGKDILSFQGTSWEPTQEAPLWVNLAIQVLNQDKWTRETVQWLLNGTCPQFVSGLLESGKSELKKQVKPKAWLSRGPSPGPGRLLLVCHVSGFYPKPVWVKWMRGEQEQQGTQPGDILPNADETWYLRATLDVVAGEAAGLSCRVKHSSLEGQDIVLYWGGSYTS

CCCCCCCCCCCCCCCCCCCCCCCCCC(=O)N[C@@H](COC[C@H](O)[C@@H](O)CO)[C@H](O)[C@H](O)CCCCCCCCCCCCCC [ThrCer, threitolceramide, reference compound]
Kd (SPR equilibrium binding, hCD1d refolded with lipid, read-out: K d, human iNKT‐cell TCR binding to hCD1d/lipid complex): 3.15 µM | koff (SPR kinetics experiment, read-out: k off, human iNKT‐cell TCR from hCD1d/lipid complex): 0.114 s⁻¹

— PMC4913735, “Non‐glycosidic compounds can stimulate both human and mouse iNKT cells” (European Journal of Immunology, 2016)
